Results reported in PubChem BioAssay (NCI).
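Protocol summary: plate cells (96-well), add compound at 5 concentrations, incubate 48 h, interpolate endpoints linearly. Abbreviation: GI50, concentration required for 50% inhibition of growth. TGI denotes the concentration required for complete inhibition of growth.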

Tests used:
Test in all cases: NCI-60 cell line screen, 48 h
NCI/ADR-RES ovarian = system: NCI/ADR-RES ovarian
RXF 393 renal = system: RXF 393 renal
IGROV1 ovarian = system: IGROV1 ovarian
PC-3 prostate = system: PC-3 prostate
COLO 205 colon = system: COLO 205 colon
M14 melanoma = system: M14 melanoma
OVCAR-4 ovarian = system: OVCAR-4 ovarian
OVCAR-5 ovarian = system: OVCAR-5 ovarian
HS 578T breast = system: HS 578T breast
CAKI-1 renal = system: CAKI-1 renal
SF-295 CNS = system: SF-295 CNS
UACC-62 melanoma = system: UACC-62 melanoma
SF-539 CNS = system: SF-539 CNS
NCI-H460 lung = system: NCI-H460 lung
EKVX NSCLC = system: EKVX NSCLC
UO-31 renal = system: UO-31 renal
MALME-3M melanoma = system: MALME-3M melanoma
U251 CNS = system: U251 CNS
SF-268 CNS = system: SF-268 CNS
NCI-H522 lung = system: NCI-H522 lung
HCC-2998 colon = system: HCC-2998 colon
HOP-92 NSCLC = system: HOP-92 NSCLC
OVCAR-3 ovarian = system: OVCAR-3 ovarian
SR leukemia = system: SR leukemia
SNB-75 CNS = system: SNB-75 CNS
MOLT-4 leukemia = system: MOLT-4 leukemia
NCI-H226 lung = system: NCI-H226 lung
DU-145 prostate = system: DU-145 prostate
T-47D breast = system: T-47D breast
SK-MEL-5 melanoma = system: SK-MEL-5 melanoma
OVCAR-8 ovarian = system: OVCAR-8 ovarian
CCRF-CEM leukemia = system: CCRF-CEM leukemia
SNB-19 CNS = system: SNB-19 CNS
HOP-62 NSCLC = system: HOP-62 NSCLC
A498 renal = system: A498 renal
HL-60(TB) leukemia = system: HL-60(TB) leukemia
RPMI-8226 leukemia = system: RPMI-8226 leukemia
SK-MEL-2 melanoma = system: SK-MEL-2 melanoma
SK-MEL-28 melanoma = system: SK-MEL-28 melanoma
HCT-15 colon = system: HCT-15 colon
BT-549 breast = system: BT-549 breast
SW-620 colon = system: SW-620 colon
UACC-257 melanoma = system: UACC-257 melanoma
KM12 colon = system: KM12 colon
TK-10 renal = system: TK-10 renal
MDA-MB-435 = system: MDA-MB-435
LOX IMVI melanoma = system: LOX IMVI melanoma
HCT-116 colon = system: HCT-116 colon
MDA-MB-231 breast = system: MDA-MB-231 breast
MCF7 breast = system: MCF7 breast
SN12C renal = system: SN12C renal
786-0 renal = system: 786-0 renal
K-562 leukemia = system: K-562 leukemia
A549 NSCLC = system: A549 NSCLC
SK-OV-3 ovarian = system: SK-OV-3 ovarian
ACHN renal = system: ACHN renal
HT29 colon = system: HT29 colon
NCI-H23 lung = system: NCI-H23 lung

For `C=CC[PH+](c1ccccc1)c1ccccc1.C=CC[PH+](c1ccccc1)c1ccccc1.[Cl][Pt][Cl]`, the GI50 (NCI/ADR-RES ovarian) was 25.1 µM, the TGI (NCI/ADR-RES ovarian) was > 100 µM and the GI50 (RXF 393 renal) was 3.33 µM. For the same compound, the TGI (RXF 393 renal) was 9.82 µM, the GI50 (IGROV1 ovarian) was 3.68 µM and the TGI (IGROV1 ovarian) was 13.9 µM. The GI50 (PC-3 prostate) was 7.11 µM, the TGI (PC-3 prostate) was 24.6 µM and the GI50 (COLO 205 colon) was 5.39 µM. The TGI (COLO 205 colon) was 34.1 µM, the GI50 (M14 melanoma) was 6.35 µM and the TGI (M14 melanoma) was 22.3 µM. It also gave a GI50 (OVCAR-4 ovarian) of 4.78 µM, a TGI (OVCAR-4 ovarian) of 16.8 µM and a GI50 (OVCAR-5 ovarian) of 13.9 µM. The TGI (OVCAR-5 ovarian) was 30.4 µM, the GI50 (HS 578T breast) was 13.4 µM and the TGI (HS 578T breast) was 48.6 µM. For the same compound, the GI50 (CAKI-1 renal) was 10.6 µM, the TGI (CAKI-1 renal) was 22.7 µM and the GI50 (SF-295 CNS) was 37.9 µM. The TGI (SF-295 CNS) was > 100 µM, the GI50 (UACC-62 melanoma) was 5.88 µM and the TGI (UACC-62 melanoma) was 19.5 µM. It also gave a GI50 (SF-539 CNS) of 13.2 µM, a TGI (SF-539 CNS) of 26.3 µM and a GI50 (NCI-H460 lung) of 12.8 µM. It also gave a TGI (NCI-H460 lung) of 30.1 µM, a GI50 (EKVX NSCLC) of 13 µM and a TGI (EKVX NSCLC) of 27.4 µM. The GI50 (UO-31 renal) was 3.95 µM, the TGI (UO-31 renal) was 16.4 µM and the GI50 (MALME-3M melanoma) was 2.22 µM. It also gave a TGI (MALME-3M melanoma) of 5.8 µM, a GI50 (U251 CNS) of 7.45 µM and a TGI (U251 CNS) of 22.3 µM. For the same compound, the GI50 (SF-268 CNS) was 14.2 µM, the TGI (SF-268 CNS) was 32 µM and the GI50 (NCI-H522 lung) was 2.68 µM. The TGI (NCI-H522 lung) was 8.19 µM, the GI50 (HCC-2998 colon) was 15 µM and the TGI (HCC-2998 colon) was 29.9 µM. The GI50 (HOP-92 NSCLC) was 3.27 µM, the TGI (HOP-92 NSCLC) was 12.4 µM and the GI50 (OVCAR-3 ovarian) was 3.21 µM. For the same compound, the TGI (OVCAR-3 ovarian) was 10.4 µM, the GI50 (SR leukemia) was 2.84 µM and the TGI (SR leukemia) was 11.7 µM. It also gave a GI50 (SNB-75 CNS) of 11 µM, a TGI (SNB-75 CNS) of 25.1 µM and a GI50 (MOLT-4 leukemia) of 3.11 µM. It also gave a TGI (MOLT-4 leukemia) of 14 µM, a GI50 (NCI-H226 lung) of 16.1 µM and a TGI (NCI-H226 lung) of 33 µM. It also gave a GI50 (DU-145 prostate) of 12.7 µM, a TGI (DU-145 prostate) of 30.2 µM and a GI50 (T-47D breast) of 4.59 µM. The TGI (T-47D breast) was 24.6 µM, the GI50 (SK-MEL-5 melanoma) was 15.8 µM and the TGI (SK-MEL-5 melanoma) was 30.6 µM. It also gave a GI50 (OVCAR-8 ovarian) of 5.25 µM, a TGI (OVCAR-8 ovarian) of 31.5 µM and a GI50 (CCRF-CEM leukemia) of 3.6 µM. The TGI (CCRF-CEM leukemia) was > 100 µM, the GI50 (SNB-19 CNS) was 14.2 µM and the TGI (SNB-19 CNS) was 32.4 µM. The GI50 (HOP-62 NSCLC) was 18.5 µM, the TGI (HOP-62 NSCLC) was 40.5 µM and the GI50 (A498 renal) was 16.5 µM. The TGI (A498 renal) was 57.8 µM, the GI50 (HL-60(TB) leukemia) was 3.34 µM and the TGI (HL-60(TB) leukemia) was 14 µM. For the same compound, the GI50 (RPMI-8226 leukemia) was 3.18 µM, the TGI (RPMI-8226 leukemia) was 13.6 µM and the GI50 (SK-MEL-2 melanoma) was 18.3 µM. The TGI (SK-MEL-2 melanoma) was 40.4 µM, the GI50 (SK-MEL-28 melanoma) was 7.69 µM and the TGI (SK-MEL-28 melanoma) was 21.3 µM. The GI50 (HCT-15 colon) was 3.87 µM, the TGI (HCT-15 colon) was 16.8 µM and the GI50 (BT-549 breast) was 17.1 µM. The TGI (BT-549 breast) was 35.4 µM, the GI50 (SW-620 colon) was 3.46 µM and the TGI (SW-620 colon) was 13.6 µM. It also gave a GI50 (UACC-257 melanoma) of 11.9 µM, a TGI (UACC-257 melanoma) of 31.6 µM and a GI50 (KM12 colon) of 15.4 µM. The TGI (KM12 colon) was 35.7 µM, the GI50 (TK-10 renal) was 13.4 µM and the TGI (TK-10 renal) was 32.7 µM. For the same compound, the GI50 (MDA-MB-435) was 14.8 µM, the TGI (MDA-MB-435) was 28.9 µM and the GI50 (LOX IMVI melanoma) was 2.1 µM. The TGI (LOX IMVI melanoma) was 4.7 µM, the GI50 (HCT-116 colon) was 3.2 µM and the TGI (HCT-116 colon) was 10.6 µM. The GI50 (MDA-MB-231 breast) was 3.23 µM, the TGI (MDA-MB-231 breast) was 10.3 µM and the GI50 (MCF7 breast) was 5.62 µM. The TGI (MCF7 breast) was 24.4 µM, the GI50 (SN12C renal) was 3.35 µM and the TGI (SN12C renal) was 13.9 µM. For the same compound, the GI50 (786-0 renal) was 12.6 µM, the TGI (786-0 renal) was 25.5 µM and the GI50 (K-562 leukemia) was 3.27 µM. The TGI (K-562 leukemia) was 11.9 µM, the GI50 (A549 NSCLC) was 21.8 µM and the TGI (A549 NSCLC) was > 100 µM. It also gave a GI50 (SK-OV-3 ovarian) of 24 µM, a TGI (SK-OV-3 ovarian) of 65.7 µM and a GI50 (ACHN renal) of 3.73 µM. The TGI (ACHN renal) was 12.9 µM, the GI50 (HT29 colon) was 8.98 µM and the TGI (HT29 colon) was 32.8 µM. It also gave a GI50 (NCI-H23 lung) of 9.14 µM and a TGI (NCI-H23 lung) of 23.9 µM.
